The record followed here is patent publication US20260217863A1, “ANTIBODY OR PEPTIDE BINDING SPECIFICALLY TO RNASE A, IMMUNOASSAY DEVICE AND METHOD FOR DETECTING RNASE A, AND METHOD FOR COLLECTING RNASE A” (UIF (University Industry Foundation), Yonsei University, priority 2022, published 2026).

Where no end group is shown, it is not given here.

The target in this experiment is T1, RNase A (Bos taurus, UniProt P61823).
T1 sequence (P61823 27-150): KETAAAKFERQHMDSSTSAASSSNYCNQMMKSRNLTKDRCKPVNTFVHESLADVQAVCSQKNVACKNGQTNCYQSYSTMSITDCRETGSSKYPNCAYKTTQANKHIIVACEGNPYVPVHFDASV
Briefly: RNA cleavage assay with total RNA from HeLa cells, agarose gel imaging. Set-up: Ribonuclease A (Type II-A) from bovine pancreas; purchased Sigma-Aldrich Korea; host or cells: bovine pancreas. The note with it: RNase 0.7 μg/ml, agarose gel image analysis, read-out: IC50 for RNase A activity inhibition. Type of experiment: biochemical, bovine. The procedure:
The analysis of RNase inhibitory activity of Fv antibodies and synthetic peptides was performed using RNA samples extracted from HeLa cells as follows: (1) Mixing the RNA sample extracted from HeLa cells (600 ng) with 87.5 nM-5.6 μM under conditions of 37° C. for 30 minutes, (2) Electrophoresis on a 1% agarose gel at 90 V for 40 minutes. The estimation of RNase inhibitory activity was carried out by gel imaging of the cleaved RNA using a ChemiDoc XPS (Bio-Rad, CA, USA).
(§1) Using RNA samples extracted from HeLa cells, the RNase inhibitory activity of the synthesized peptides was estimated. The RNase inhibitory activity was assessed using agarose gel imaging of the cleaved RNA. To optimize the RNase concentration for the RNase inhibition assay, total RNA was treated with RNase A (600 ng), with RNase A concentrations ranging from 5.7 ng/ml to 3.6 μg/ml, and the cleaved RNA bands were observed after treatment with ETBR (ethidium bromide). […] The RNase concentration for inhibition analysis was determined to be 0.7 μg/ml, with RNase concentrations above 3.6 μg/ml. The inhibition analysis was performed by mixing total RNA from HeLa cells with RNase (0.7 μg/ml) and Fv-antibody at a concentration of 10 μM, resulting in the observation that the entire RNA was completely cleaved into small RNA bands in the absence of the Fv-antibody. […] The optimal concentration of the Fv-antibody for RNase inhibition was determined by the cleavage reaction with total RNA in the concentration range of 87.5 nM to 5.6 μM for Fv-antibodies (Fv-1, Fv-2, Fv-3).
The analysis of RNase inhibitory activity of Fv antibodies and synthetic peptides was performed using RNA samples extracted from HeLa cells as follows: (1) A mixture of RNA samples extracted from HeLa cells (600 ng) was prepared at concentrations of 87.5 nM-5.6 μM and incubated at 37° C. for 30 minutes; (2) Electrophoresis was conducted in a 1% agarose gel under 90 V for 40 minutes. The estimation of RNase inhibitory activity was carried out by gel imaging of the cleaved RNA using a ChemiDoc XPS (Bio-Rad, CA, USA).
as §1, with “the” for “the concentration”
DGTAKKSRKDD [Peptide-3]: the IC50 (usually the point on the concentration scale where inhibition reaches its midpoint) amounted to 464 nM. As for CGPDSDVMTDF [Peptide-1], the IC50 amounted to 995 nM. Then YGPVGRVKRDD [Peptide-2], with 658 nM.
